The source of these data is EP0408760B1, “NEW HYDROXYLAMINE DERIVATIVE” (FUJISAWA PHARMACEUTICAL CO., LTD., priority 1988, dated 1990).

The assay deals with D-Galactosamine-induced hepatitis in rats. In words: Effect of compound on D-Galactosamine-induced hepatitis in rats (serum GOT and GPT). The assay is classed as in vivo. The settings on record: orally 3 hour before and after D-Galactosamine, blood 24 hours later, male Wistar rats. The protocol: Method : Effect of compound on D-Galactosamine-induced hepatitis in rats
Acute hepatitis was induced in male Wistar rats at 6 weeks of age by the intraperitoneal injection of 80 mg/ml D-Galactosamine in saline at the volume of 5 ml/kg. Blood samples were taken in rats under ether anaesthesia 24 hours later.
After centrifugation for the separation of sera, the levels of GOT and GPT were determined spectrophotometrically according to Biochemical Analyzer TBA-20R (Toshiba).
Compound was dissolved in polyethylene glycol 400, and administered orally 3 hour before and after the injection of D-Galactosamine.
The levels of serum GOT and GPT in group of animals were measured as described above, and the mean value of each group calculated, including normal rats without D-Galactosamine injection.
The effect of compound was expressed as the percentage Inhibition at serum GOT and GPT, taking activity of control serum as 0% Inhibtion and that of normal serum as 100% Inhibition.

As to `CCNC(=O)N(O)CC1=Cc2cccc(Oc3ccccc3)c2CC1` [Test Compound (f), N-[(3,4-Dihydro-5-phenoxy-2-naphthyl)methyl]-N-hydroxy-N'-ethylurea], the “Inhibition (%) serum GOT” value (dose 1 mg/kg) came out at 38%, the “Inhibition (%) serum GOT” value (dose 10 mg/kg) is on record as 40% and the “Inhibition (%) serum GOT” value (dose 32 mg/kg) worked out at 67%. In addition, the “Inhibition (%) serum GPT” value by setting is: (dose 1 mg/kg) 42%; (dose 10 mg/kg) 37%; (dose 32 mg/kg) 64%.
